As a reminder, the IC50 is the midpoint of a concentration-inhibition curve. By CC50 is commonly meant the concentration at which the toxic effect on the cells reaches its halfway point. As a reminder, the Ki is the equilibrium dissociation constant of an inhibitor or competing ligand from its target.

Structures are written as SMILES.

From ChEMBL document CHEMBL4177585, “Discovery of berberine based derivatives as anti-influenza agent through blocking of neuraminidase” (Bioorg Med Chem, 2017) come the findings set out here.

Chain of Neuraminidase (Influenza A virus (A/Puerto Rico/8/1934(H1N1)), UniProt P03468) (P03468 whole entry): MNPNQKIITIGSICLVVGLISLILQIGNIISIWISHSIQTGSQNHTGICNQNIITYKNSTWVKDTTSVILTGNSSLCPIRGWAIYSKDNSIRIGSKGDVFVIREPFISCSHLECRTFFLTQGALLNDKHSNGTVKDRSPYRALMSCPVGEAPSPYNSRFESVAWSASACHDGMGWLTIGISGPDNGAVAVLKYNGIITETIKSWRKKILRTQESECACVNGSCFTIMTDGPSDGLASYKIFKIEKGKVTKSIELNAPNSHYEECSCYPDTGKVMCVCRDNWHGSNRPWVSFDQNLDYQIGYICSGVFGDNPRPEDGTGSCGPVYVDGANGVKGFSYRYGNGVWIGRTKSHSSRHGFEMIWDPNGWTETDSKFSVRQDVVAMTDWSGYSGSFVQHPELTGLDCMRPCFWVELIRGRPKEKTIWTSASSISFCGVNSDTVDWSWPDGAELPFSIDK

One series deals with Influenza A virus. In words: Antiviral activity against Influenza A virus (A/Puerto Rico/8/1934(H1N1)) infected in MDCK cells assessed as reduction in virus-induced cytopathogenicity incubated for 48 hrs by SRB assay. In kind it is functional, organism-based.
Details: not given
(Cytopathic effects are the visible damage that an infection or toxin causes in cultured cells.)
With `COc1cc(CN2CCN(C(=O)c3ccccc3)CC2)c2cc3[n+](cc2c1O)CCc1cc2c(cc1-3)OCO2.[Cl-]`, the IC50 is more than 50 µg/mL.

With `COc1cc(CN2CCOCC2)c2cc3[n+](cc2c1O)CCc1cc2c(cc1-3)OCO2.[Cl-]`, the IC50 worked out at 44.3 µg/mL.

Take `COc1ccc(N2CCN(Cc3cc(OC)c(O)c4c[n+]5c(cc34)-c3cc4c(cc3CC5)OCO4)CC2)c(OC)c1.[Cl-]`: the IC50 was 47.8 µg/mL.

As to `COc1cc(CN2CCCCC2)c2cc3[n+](cc2c1O)CCc1cc2c(cc1-3)OCO2.[Cl-]`, the IC50 was more than 50 µg/mL.

For `COc1cc(CN2CCN(c3ccc([N+](=O)[O-])cc3)CC2)c2cc3[n+](cc2c1O)CCc1cc2c(cc1-3)OCO2.[Cl-]`, the half-maximal inhibitory concentration (IC50) is more than 50 µg/mL.

Take `COc1cc(CN2CCN(c3ccccn3)CC2)c2cc3[n+](cc2c1O)CCc1cc2c(cc1-3)OCO2.[Cl-]`: the IC50 is 2.64 µg/mL.

Tested on in another series: not listed separately
The series is described as follows: Cytotoxicity against MDCK cells incubated for 48 hrs assessed as reduction in cell viability by SRB assay. In kind it is cell-based, Canis lupus familiaris. As to conditions: dog. (The SRB assay estimates cell density from bound dye.)
In the case of `COc1cc(CN2CCN(C(=O)c3ccccc3)CC2)c2cc3[n+](cc2c1O)CCc1cc2c(cc1-3)OCO2.[Cl-]`, the CC50 at 48 h amounted to 424 µg/mL.

As for `COc1cc(CN2CCOCC2)c2cc3[n+](cc2c1O)CCc1cc2c(cc1-3)OCO2.[Cl-]`, the half-maximal cytotoxic concentration (CC50) at 48 h worked out at 126 µg/mL.

As for `COc1cc(CN2CCCCC2)c2cc3[n+](cc2c1O)CCc1cc2c(cc1-3)OCO2.[Cl-]`, the 50% cytotoxic concentration (CC50) at 48 h came to 1640 µg/mL.

Regarding `COc1cc(CN2CCN(c3ccc([N+](=O)[O-])cc3)CC2)c2cc3[n+](cc2c1O)CCc1cc2c(cc1-3)OCO2.[Cl-]`, the CC50 at 48 h worked out at 1380 µg/mL.

With `COc1cc(CN2CCN(c3ccccn3)CC2)c2cc3[n+](cc2c1O)CCc1cc2c(cc1-3)OCO2.[Cl-]`, the 50% cytotoxic concentration (CC50) at 48 h stood at 185 µg/mL.

The next series concerns the target Neuraminidase (Influenza A virus (A/Puerto Rico/8/1934(H1N1)), UniProt P03468). In words: Inhibition of neuraminidase in influenza A virus (A/Puerto Rico/8/1934(H1N1)) pre-incubated for 30 mins before NA-Star substrate addition for 30 mins by luminescence based assay.
Details: not given
In turn, `COc1cc(CN2CCN(C(=O)c3ccccc3)CC2)c2cc3[n+](cc2c1O)CCc1cc2c(cc1-3)OCO2.[Cl-]` registered a Ki of 580 nM.

Compound `COc1cc(CN2CCOCC2)c2cc3[n+](cc2c1O)CCc1cc2c(cc1-3)OCO2.[Cl-]` registered a Ki of 480 nM.

`COc1ccc(N2CCN(Cc3cc(OC)c(O)c4c[n+]5c(cc34)-c3cc4c(cc3CC5)OCO4)CC2)c(OC)c1.[Cl-]` came in with a Ki of 1590 nM.

`COc1cc(CN2CCCCC2)c2cc3[n+](cc2c1O)CCc1cc2c(cc1-3)OCO2.[Cl-]` came in with an inhibition constant (Ki) of 680 nM.

In the case of `COc1cc(CN2CCN(c3ccc([N+](=O)[O-])cc3)CC2)c2cc3[n+](cc2c1O)CCc1cc2c(cc1-3)OCO2.[Cl-]`, the inhibition constant Ki is 1330 nM.

Take `COc1cc(CN2CCN(c3ccccn3)CC2)c2cc3[n+](cc2c1O)CCc1cc2c(cc1-3)OCO2.[Cl-]`: the Ki was 170 nM.
